Measurements published in the supplement of paper PMC6206229.
Converted amounts (≈) assume the structure as drawn.

How the values were obtained:
[1] = test system: Staphylococcus aureus ATCC 29213 (MSSA); experiment: minimum inhibitory concentration; extreme values may be limits of the assay
How it was run: (§1)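 Following CLSI guidance, methicillin-susceptible and methicillin-resistant Staphylococcus aureus were exposed to compounds from 0 to 100 µM in 96-well plates for 24 h at 37°C, then to 30 µl of 0.015% resazurin for 2–4 h. The minimum inhibitory concentration was read as the lowest concentration with no change from blue to pink. Testing was done at least twice in triplicate with positive controls on each plate.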

[2] = test system: Staphylococcus aureus ATCC 700699 (MRSA); experiment: as above
How it was run: as §1

SMILES | minimum inhibitory concentration [1] [µM] | minimum inhibitory concentration [2] [µM]
O=C(NCc1nnc2n1CCCCC2)c1ccc(-c2ccc(F)cc2)o1 | > 50 | > 50
Cc1ccc(NC(=O)CC2COc3ccccc3O2)cc1Cl (stereo not drawn) | > 50 | > 50
Nc1ncc(Br)cc1-c1nc2cc(Cl)cnc2[nH]1 | > 50 | > 50
Cn1ncc2c(N3CCOCC3)nc(NCCc3c[nH]c4ccccc34)nc21 | > 50 | > 50
CCOc1ccc2cc(-c3nn(CC4CCN(C)CC4)c4ncnc(N)c34)ccc2c1 | > 50 | > 50
CC(=O)N1CCc2cc3nc(C)cc(C)c3cc21 | > 50 | > 50
CC1COC2(CCN(c3nc(=O)c4cc(C(F)(F)F)cc([N+](=O)[O-])c4s3)CC2)O1 (stereo not drawn) | > 50 | > 50
OCCc1ccc(Nc2nccc(-c3nnc4ccccn34)n2)cc1 | > 50 | > 50
CC(C)(C)c1cnc(NC(=O)c2ccccc2O)s1 | > 50 | > 50
O=C(NCCc1ccn(-c2ccccc2)n1)C1CCCCC1 | > 50 | > 50
Nc1ncnc2c1ncn2C[C@@H](O)[C@@H](O)C(=O)O | > 50 | > 50
CC1COC(Cn2cncn2)(c2ccc(Oc3ccc(Cl)cc3)cc2Cl)O1 (stereo not drawn) | > 50 | > 50
CC(C)(C)OC(=O)N1CCN(c2nccc(-c3ccc(-c4ccc(Cl)cc4)s3)n2)CC1 | > 50 | > 50
CC(C)(C)n1nc(Cc2cccc3ccccc23)c2c(N)ncnc21 | > 50 | > 50
O=C(Nc1ccc2c(c1)B(O)OC2)c1ccccc1C(F)(F)F | > 50 | > 50
FC(F)(F)c1nnc2ccc(Cl)nn12 | > 50 | > 50
O=C(Nc1nnc(S)s1)c1cc(Br)ccc1Cl | > 50 | > 50
Cc1ncc(-c2ccnc(Nc3ccc(S(C)(=O)=O)cc3)n2)n1C(C)C | > 50 | > 50
CCc1ccc(C(NCc2nc(N)nc(N(C)C)n2)C(C)C)cc1 (stereo not drawn) | > 50 | > 50
COC(=O)c1c(NC(=O)c2c(F)c(F)c(F)c(F)c2F)sc2c1CCCCC2 | > 50 | > 50
CS(=O)(=O)c1cccc(-c2cnc3[nH]cc(-c4ccc(CCC(=O)O)cc4)c3c2)c1 | > 50 | > 50
Nc1nccc2ccc(-c3ccc4nccn4c3)cc12 | > 50 | > 50
COc1cc2ncnc(NC3CCN(Cc4ccccc4)CC3)c2cc1OC | > 50 | > 50

SMILES | minimum inhibitory concentration [1] [µM] | minimum inhibitory concentration [2] [µM]
COc1ccc(C2=NN(C3CCCCCC3)C(=O)C2(C)C)cc1OCCCCOc1ccc(-c2nn[nH]n2)cc1 | 50 (≈ 27.3 µg/mL) | 50 (≈ 27.3 µg/mL)
COc1ccc(C2=NCCN2)cc1-c1cn(-c2cccc(C3=NCCN3)c2)nn1 | > 50 | > 50
Nc1c2c(nc3sc4c(c13)CCCC4)CCCC2 | > 50 | > 50
Nc1ccc(C(=O)Nc2ccc(-c3nc4ccccc4o3)cc2)cc1 | > 50 | > 50
COc1ccc(-c2cnc3ccc(NCc4ccc(S(N)(=O)=O)cc4)nn23)cn1 | > 50 | > 50
O=C(Nc1ccccc1)c1ccc(-c2cc3ccncc3cc2OC2CCNCC2)s1 | 50 (≈ 21.5 µg/mL) | 50 (≈ 21.5 µg/mL)
COc1cc(CN2CCC3(C=Cc4ccccc43)CC2)cc2c1OCO2 | > 50 | > 50
Cc1cc(OCC(=O)Nc2ccc(C(C)C)cc2)n(C)c(=O)c1C#N | > 50 | > 50
COc1cccc(-n2nnnc2S(=O)(=O)Cc2ccccc2)c1 | 50 (≈ 16.5 µg/mL) | 50 (≈ 16.5 µg/mL)
CCn1cnc2c(Nc3cc(F)cc(F)c3)nc(C#N)nc21 | > 50 | > 50
CC(=O)N(CCN(C(=O)c1ccc(F)cc1)c1ccccc1)c1ccccc1 | > 50 | > 50
COc1nc2ccc(Br)cc2cc1[C@@H](c1ccccc1)[C@@](O)(CCN(C)C)c1cccc2ccccc12 | > 50 | > 50
Cc1nnc(NCc2cccc(Cl)c2)c2ccccc12 | > 50 | > 50
N#CCN(CCCCN1CCN(c2ccc(F)cc2)CC1)C(=O)OCc1ccccc1 | > 50 | > 50
CC(=O)Nc1ccc(NC(=O)c2cc(-c3cc(Cl)ccc3O)n[nH]2)cc1 | > 50 | > 50
O=C(Nc1ccc(F)c(-c2nc3cc(-c4ccccc4)cnc3[nH]2)c1)N1CCCC1 | > 50 | > 50
Cc1cnc(N2CCN[C@@H](Cc3ccccc3)C2)nc1Oc1ccc(-n2ccnc2)cc1 | > 50 | > 50
c1cc(C2=NCCN2)cc(-c2cc(-c3ccc(C4=NCCN4)cc3)no2)c1 | > 50 | > 50
CC1=Nc2ccc(Cl)cc2C(c2ccccc2)N1CCNC(=O)CN(C)C (stereo not drawn) | > 50 | > 50
CC(C)(C)CN1C(=O)C(c2ccccc2)(c2ccccc2)N=C1N | > 50 | > 50
COc1cccc(CC(=O)N2CCC(n3c(C)nc4ccc(F)cc43)CC2)c1 | > 50 | > 50
O=C(NCc1ccco1)N1CCN(Cc2ccc(Cl)s2)CC1 | > 50 | > 50
O=C1Nc2ccc(Br)cc2C12NCCc1c2[nH]c2ccccc12 (stereo not drawn) | > 50 | > 50

SMILES | minimum inhibitory concentration [1] [µM] | minimum inhibitory concentration [2] [µM]
NCCC(O)C(=O)N[C@@H]1C[C@H](N)[C@@H](OC2O[C@H](CN)[C@@H](O)[C@H](O)[C@H]2O)[C@H](O)C1OC1O[C@H](CO)[C@@H](O)[C@H](N)[C@H]1O (stereo partly drawn) | > 50 | > 50
O=C(c1ccc(NCCO)cc1)C1C[C@H]1c1ccc(Cl)cc1 (stereo partly drawn) | > 50 | > 50
C[C@H]1c2cccc(O)c2C(=O)C2=C(O)[C@]3(O)C(=O)C(C(N)=O)=C(O)[C@@H](N(C)C)[C@@H]3[C@@H](O)[C@@H]21 | 0.781 (≈ 0.347 µg/mL) | 25 (≈ 11.1 µg/mL)
Cc1cc(C(=O)Nc2ccc(-c3ccccc3)cc2)no1 | > 50 | > 50
COc1ccc(C2(C(=O)Nc3ccc(Br)cc3)CCCC2)cc1 | > 50 | > 50
COc1ccc(-c2onc(C(F)(F)F)c2-c2ccc(Cl)cc2)c(O)c1 | > 50 | > 50
Cc1ccc2nc(C)c(-c3ccn(Cc4ccccc4)n3)n2c1 | > 50 | > 50
CN1CCN(c2nccc3nc(-c4ccc(F)c(F)c4)[nH]c23)CC1 | > 50 | > 50
Nc1ncnc2c1ncn2[C@@H]1O[C@H](COS(=O)(=O)NC(=O)c2ccccc2O)[C@@H](O)[C@H]1O | > 50 | > 50
COc1ccc(C(=N)N)cc1-c1cn(-c2ccc(C(=N)N)cc2)nn1 | > 50 | > 50
NC(=O)c1cc(-c2ccsc2)ccc1OCCOc1ccccc1 | > 50 | > 50
c1ccc(Oc2ccc(-c3cc(N4CCNCC4)[nH]n3)cc2)cc1 | > 50 | > 50
O=C(C1CCN(c2cc(-n3cccc3)ncn2)CC1)N1CCc2ccccc2C1 | > 50 | > 50
CC(C)C(Oc1cccc2ccccc12)C(=O)O (stereo not drawn) | > 50 | > 50
Cc1cccc(-c2nc(Nc3ccncn3)c3sccc3n2)n1 | > 50 | > 50
CC(C)=CCC/C(C)=C/CNCCNC1C2CC3CC(C2)CC1C3 (stereo not drawn) | 50 (≈ 16.5 µg/mL) | 50 (≈ 16.5 µg/mL)
O=C(Nc1ccc(N2CCNCC2)nc1)c1oc(-c2ccccc2)nc1C(F)(F)F | > 50 | > 50
CCc1ccc([C@@H]2C[C@H](C(F)(F)F)n3ncc(C(=O)NCc4ccc(OC)cc4)c3N2)cc1 | > 50 | > 50
CNC(=O)c1nn(C)c2c1C(C)(C)Cc1cnc(Nc3ccc(N4CCN(C)CC4)cc3)nc1-2 | > 50 | > 50
CCOC(=O)c1cc(-c2csc(Nc3c(C)cc(C)cc3C)n2)on1 | > 50 | > 50
NS(=O)(=O)c1cncc(-c2ccc3nccc(-c4cn[nH]c4)c3n2)c1 | > 50 | > 50
CN(C)CCNC(=O)N1CCCN(c2ncnc3cc(-c4ccccc4)sc23)CC1 | > 50 | > 50
C[C@H](c1ccc2c(c1)CCCC2)N(C)c1ncc2c(N)nc(N)nc2n1 | 50 (≈ 17.5 µg/mL) | 50 (≈ 17.5 µg/mL)
